Results on four substances are retold here after patent US11897931B2, “MANP analogues” (Mayo Foundation for Medical Education and Research, priority 2016, dated 2024).

In one experiment the test system is normal dogs. The note with it: cited from earlier work.
The test system of experiment [1] is Spontaneously hypertensive rats (SHRs). Put plainly: Acute IV MANP in spontaneously hypertensive rats: BP, plasma and urinary cGMP, natriuresis. It counts as in vivo, rat. Particulars: acute IV administration. The method, then:
FIGS. 2A-2E are a series of graphs plotting the effect of MANP, administered intravenously at the indicated doses, on mean arterial pressure (FIG. 2A), cGMP levels in plasma (FIG. 2B) and urine (FIG. 2C), distal tubule sodium reabsorption (FIG. 2D), and urinary sodium excretion (FIG. 2E) in spontaneously hypertensive rats.
Spontaneously hypertensive rats (SHRs) were injected with intravenous (IV) MANP or vehicle, and BP, plasma and urinary cGMP, and natriuretic effects were determined.

The next experiment deals with T1, pGC-A (Homo sapiens, UniProt P16066).
T1 construct: host or cells: HEK293
T1 sequence (P16066 33-1061): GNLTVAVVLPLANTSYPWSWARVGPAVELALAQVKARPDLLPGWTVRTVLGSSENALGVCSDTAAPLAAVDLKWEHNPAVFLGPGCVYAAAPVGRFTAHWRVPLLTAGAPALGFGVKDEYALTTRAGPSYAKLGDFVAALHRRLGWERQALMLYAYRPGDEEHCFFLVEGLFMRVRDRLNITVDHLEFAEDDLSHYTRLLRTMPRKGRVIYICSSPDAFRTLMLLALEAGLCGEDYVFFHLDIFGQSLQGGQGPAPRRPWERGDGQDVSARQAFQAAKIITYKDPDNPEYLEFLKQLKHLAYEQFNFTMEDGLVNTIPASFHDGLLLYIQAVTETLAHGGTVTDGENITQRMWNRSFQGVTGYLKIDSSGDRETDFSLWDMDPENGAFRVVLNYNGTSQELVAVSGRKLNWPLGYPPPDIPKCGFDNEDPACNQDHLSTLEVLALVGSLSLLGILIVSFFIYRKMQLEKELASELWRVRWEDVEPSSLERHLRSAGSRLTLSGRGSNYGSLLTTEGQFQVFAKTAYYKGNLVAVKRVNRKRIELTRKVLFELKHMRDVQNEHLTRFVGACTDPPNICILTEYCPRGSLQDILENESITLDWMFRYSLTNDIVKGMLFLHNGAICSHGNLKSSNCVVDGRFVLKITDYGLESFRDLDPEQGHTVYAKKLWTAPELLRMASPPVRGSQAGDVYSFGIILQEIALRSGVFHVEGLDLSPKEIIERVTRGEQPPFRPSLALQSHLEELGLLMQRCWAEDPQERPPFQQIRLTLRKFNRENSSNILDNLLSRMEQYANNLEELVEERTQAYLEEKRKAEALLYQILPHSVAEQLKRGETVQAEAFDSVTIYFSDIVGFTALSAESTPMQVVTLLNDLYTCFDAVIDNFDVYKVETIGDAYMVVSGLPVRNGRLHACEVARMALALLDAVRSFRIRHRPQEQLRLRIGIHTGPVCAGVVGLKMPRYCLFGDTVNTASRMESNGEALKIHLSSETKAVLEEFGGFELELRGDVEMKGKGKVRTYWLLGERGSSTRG
Put plainly: cGMP generation in HEK293 cells overexpressing pGC-A. It counts as cell-based. The protocol: For in vitro studies, five MANP variants were generated that contained substitutions within the N-terminal region. HEK293 cells overexpressing pGC-A were stimulated with MANP or the five variants (10^−8 M), and intracellular cGMP generation was measured.
(§1) Additional in vitro experiments were conducted using an MANP variant having a tryptophan substitution for the leucine at position 2 of MANP (SWLRRSSCFGGRMDRI GAQSGLGCNSFRYRITA REDKQGWA; SEQ ID NO:15). Human pGC-A and pGC-B cDNA clones were purchased from Origene (Rockville, Md.). HEK293 cells were stably transfected with pGC-A or pGC-B cDNA using LIPOFECTAMINE® (Invitrogen; Grand Island, N.Y.). Transfected cells were maintained in Dulbecco's modified Eagle's medium supplemented with 10% fetal bovine serum, 100 U/ml penicillin, 100 […], and 250 ug/ml G418, and were plated in 6-well plates. pGC-A-transfected cells were treated with MANP or MANP2W, while pGC-B-transfected cells were treated with CNP or MANP2W. Cells were incubated in Hank's balanced salt solution (Invitrogen; Carlsbad, Calif.) containing 20 mmol/LN42-hydroxyethyllpiperazine-N′[2-ethanesulfonic acid], 0.1% bovine serum albumin, and 0.5 mmol/L 3-isobutyl-1-methylzanthine (Sigma; St. Louis, Mo.). Treated cells received 10^−6 M, 10^−8 M, or 10^−10 M of MANP, CNP, or MANP2W peptide for 10 minutes. […]

In the next experiment the target is T2, pGC-B (Homo sapiens, UniProt P20594).
T2 construct: host or cells: HEK293
T2 sequence (P20594 23-1047): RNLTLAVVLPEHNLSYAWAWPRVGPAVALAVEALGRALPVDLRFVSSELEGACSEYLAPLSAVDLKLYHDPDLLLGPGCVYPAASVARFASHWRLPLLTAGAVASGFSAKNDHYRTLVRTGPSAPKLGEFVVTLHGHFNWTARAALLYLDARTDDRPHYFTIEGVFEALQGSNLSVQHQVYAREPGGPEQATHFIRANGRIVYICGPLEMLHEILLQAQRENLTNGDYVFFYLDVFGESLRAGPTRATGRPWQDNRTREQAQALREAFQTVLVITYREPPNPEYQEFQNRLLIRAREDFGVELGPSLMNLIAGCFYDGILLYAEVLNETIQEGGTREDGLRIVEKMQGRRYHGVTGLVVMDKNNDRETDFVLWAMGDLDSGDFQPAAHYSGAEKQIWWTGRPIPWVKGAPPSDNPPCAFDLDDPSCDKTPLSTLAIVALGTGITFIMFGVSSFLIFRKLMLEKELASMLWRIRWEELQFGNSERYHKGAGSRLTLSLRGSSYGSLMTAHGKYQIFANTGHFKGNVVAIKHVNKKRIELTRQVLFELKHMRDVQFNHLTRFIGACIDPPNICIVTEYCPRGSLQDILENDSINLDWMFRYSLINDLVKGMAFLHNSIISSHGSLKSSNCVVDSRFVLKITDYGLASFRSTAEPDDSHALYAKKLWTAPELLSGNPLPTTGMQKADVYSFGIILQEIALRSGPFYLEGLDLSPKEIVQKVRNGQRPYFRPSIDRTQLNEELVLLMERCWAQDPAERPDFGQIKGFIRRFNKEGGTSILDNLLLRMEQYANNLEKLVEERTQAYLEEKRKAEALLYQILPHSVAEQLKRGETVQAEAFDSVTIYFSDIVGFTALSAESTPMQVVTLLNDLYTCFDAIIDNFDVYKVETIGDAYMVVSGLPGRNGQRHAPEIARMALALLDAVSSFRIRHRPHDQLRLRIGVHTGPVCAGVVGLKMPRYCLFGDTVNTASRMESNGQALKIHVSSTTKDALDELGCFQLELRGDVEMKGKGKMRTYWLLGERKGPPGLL
The experiment can be described thus: cGMP generation in HEK293 cells overexpressing pGC-B. It counts as cell-based. The note with it: 10^−6 M, 10^−8 M, or 10^−10 M peptide for 10 minutes, FIG. 7B. The protocol:
as §1, with “minutes. After treatment, the cells were lysed in 300 ul 6% ice cold TCA and sonicated for 10 minutes, and the cell lysates were then centrifuged at 4° C., 12,000 g for 10 minutes.” for “minutes.”

Another experiment concerns normal canine. Put plainly: In vivo MANP18 infusion study in a normal canine. The note with it: normal dog. The protocol: FIGS. 5A-5G are graphs plotting the effect of MANP18 on mean arterial pressure (MAP; FIG. 5A), heart rate (FIG. 5B), pulmonary wedge capillary pressure (PWCP; FIG. 5C), cardiac output (FIG. 5D), renal blood flow (FIG. 5E), urine output (UV; FIG. 5F), and urinary sodium excretion (UNaV; FIG. 5G) in a normal dog. After a baseline (BL) clearance, MANP18 was infused with saline for a total of 45 minutes, which included a 15-minute lead-in period followed by a 30-minute clearance. After the peptide infusion was discontinued, and four, 30-minute clearances were performed [washout (Wo), recovery 1 (Rec1), recovery 2 (Rec2), and recovery 3 (Rec3)].
FIGS. 6A-6G are graphs plotting the effect of MANP18 on plasma cGMP levels (FIG. 6A), urinary cGMP excretion (FIG. 6B), plasma ANP levels (FIG. 6C), urinary ANP excretion (FIG. 6D), plasma aldosterone levels (FIG. 6E), plasma renin activity (PRA; FIG. 6F), and plasma angiotensin II levels (ANGII; FIG. 6G) in a normal dog. Experiments were conducted as described for FIGS. 5A-5G).
In vivo infusion studies were conducted using MANP18 in a normal canine. The night before the study, the dog was fasted. On the day of the experiment, the dog was anesthetized with pentobarbital sodium (15 mg/kg IV), intubated, and mechanically ventilated with supplemental oxygen (Harvard Respirator; Amersham, Mass.) at 12 cycles/minute. The femoral artery was cannulated for MAP monitoring and blood sampling, and the femoral vein was cannulated for saline infusion. Through a left lateral flank incision, the left kidney was exposed and the ureter was cannulated for urine sampling. Supplemental nonhypotensive doses of pentobarbital were administered as needed during the study. After 60 minutes of equilibrium, a baseline clearance was performed. All clearances consisted of urine collection over 30 minutes. Arterial blood sampling and hemodynamic measurements were measured midway through each clearance. After the baseline clearance, MANP18 was infused with saline at a dose of 33 pmol peptide/kg/min. The peptide was infused for a total of 45 minutes, which included a 15-minute lead-in period followed by a 30-minute clearance. The peptide infusion was then discontinued, and four 30-minute clearances were performed (washout, recovery 1, recovery 2, and recovery 3).

Where [2] appears, read: infusion of a high dose, compared to high dose of ANP.

Where two headings read alike, the source gives them in different places. Bridges are numbered along the chain shown (N, C = ends). Where no end group is shown, it is not given here. [ ]: non-standard residue; d: D form.

Turning to “SLRRSSCFGGRMDRIGAQSGLGCNSFRY (listed as Homo sapiens) [ANP, endogenous human mature atrial natriuretic peptide]”, in the experiment on normal dogs (infusion of a low dose), the “glomerular filtration rate (GFR)” value is “No change” and the “mean arterial pressure (MAP)” value is “No change”.
As for “SLRRSSCFGGRMDRIGAQSGLGCNSFRYRITAREDKQGWA (listed as Homo sapiens) [MANP]”, the “diuretic and natriuretic effects compared with ANP” value in the experiment on normal dogs is “greater diuretic and natriuretic effects than ANP”. Moreover, in the experiment with normal dogs (setting [2]), the “glomerular filtration rate (GFR)” value is reported as “increased GFR” and the “mean arterial pressure (MAP)” value is recorded as “decreased MAP”. Also, in the experiment with normal dogs (infusion of a low dose), the “glomerular filtration rate (GFR)” value is on record as “No change” and the “mean arterial pressure (MAP)” value is “No change”. Moreover, the “effect on renal blood flow compared with ANP” value in the experiment on normal dogs (low dose) was “greater effect than low dose ANP”. Moreover, in experiment [1] (FIG. 2A), the “BP (mean arterial pressure)” value is “reduced BP”. Besides, in experiment [1] (FIG. 2B), the “plasma cGMP generation” value is listed as “increased”. Moreover, the “urinary cGMP generation” value in experiment [1] (FIG. 2C) was “increased”. Also, the “natriuresis (distal tubule sodium reabsorption, urinary sodium excretion)” value in experiment [1] (FIGS. 2D and 2E) is on record as “induced natriuresis”.
Turning to “SWLRRSSCFGGRMDRI GAQSGLGCNSFRYRITA REDKQGWA (SWLRRSSCFGGRMDRIGAQSGLGCNSFRYRITAREDKQGWA) [MANP2W, MANP variant having a tryptophan substitution for the leucine at position 2 of MANP]”, the “pGC-A activation (cGMP generation)” value with pGC-A (10^−6 M, 10^−8 M, or 10^−10 M peptide for 10 minutes, FIG. 7A) is recorded as “selectively activated pGC-A”. The “pGC-B activation (cGMP generation)” value with pGC-B was “did not activate pGC-B”.
For the substance “SLRRSSDformCFGGRMDRIGAQSGLGCNSFRYRITAREDKQGWA (SLRRS[dS]CFGGRMDRIGAQSGLGCNSFRYRITAREDKQGWA; disulfide 7-23 (inferred)) [MANP18, MANP with D-serine at the sixth position]”, the “Potency vs. MANP” value in the experiment with pGC-A (intracellular cGMP generation, peptide 10^−8 M, HEK293 overexpressing pGC-A) was “=”. In addition, the “blood pressure (mean arterial pressure)” value in the experiment with normal canine (33 pmol peptide/kg/min infused 45 minutes, FIG. 5A) was “blood pressure lowering”. Further, the cardiac output entry in the experiment with normal canine (33 pmol peptide/kg/min infused 45 minutes, FIG. 5D) is given as “cardiac output enhancing”. In addition, the “natriuretic action (urinary sodium excretion)” value in the experiment with normal canine (33 pmol peptide/kg/min infused 45 minutes, FIG. 5G) is “natriuretic actions”. In the experiment with normal canine (33 pmol peptide/kg/min, FIG. 6E), the plasma aldosterone levels entry is “temporarily depressed”. Besides, in the experiment on normal canine (33 pmol peptide/kg/min, FIG. 6F), the “plasma renin activity (PRA)” value is recorded as “temporarily depressed”. Moreover, in the experiment on normal canine (33 pmol peptide/kg/min, FIG. 6G), the “plasma angiotensin II levels (ANGII)” value is listed as “temporarily depressed”. In addition, the “cGMP (plasma cGMP levels, urinary cGMP excretion)” value in the experiment with normal canine (33 pmol peptide/kg/min, FIGS. 6A and 6B) is given as “activated cGMP”. Further, the “ANP levels (plasma ANP, urinary ANP excretion)” value in the experiment with normal canine (33 pmol peptide/kg/min, FIGS. 6C and 6D) was “temporarily increased”.
